Assay results published in patent publication US7563592B2, “Alizarin-based chromogenic substrates, their uses and composition containing same” (Biomerieux, S.A., priority 1999, dated 2009).

What was measured:
Enterobacter aerogenes = assay: β-galactosidase detection on semi-solid medium, clinical and environmental strains (Example 2); assay type: cell-based; conditions: 50 mg/l + iron citrate 500 mg/l; 18 hours; 9 strains tested
[1] = tested on: Yersinia pseudotuberculosis; assay type: cell-based; conditions: 50 mg/l + iron citrate 500 mg/l; 18 hours; 3 strains tested
Aeromonas caviae = assay: β-galactosidase detection on semi-solid medium, clinical and environmental strains (Example 2); assay type: cell-based; conditions: 50 mg/l + iron citrate 500 mg/l; 18 hours; 7 strains tested
Hafnia alvei = assay: as above; assay type: cell-based; conditions: 50 mg/l + iron citrate 500 mg/l; 18 hours; 10 strains tested
Proteus vulgaris = assay: as above; assay type: cell-based; conditions: 50 mg/l + iron citrate 500 mg/l; 18 hours; 4 strains tested
Escherichia coli 115 = assay: β-galactosidase detection in semi-solid Columbia medium (Example 1); assay type: cell-based
Shigella boydii = assay: β-galactosidase detection on semi-solid medium, clinical and environmental strains (Example 2); assay type: cell-based; conditions: 50 mg/l + iron citrate 500 mg/l; 18 hours; 1 strain tested
[2] = tested on: Klebsiella pneumoniae 023; assay: β-galactosidase detection in semi-solid Columbia medium (Example 1); assay type: cell-based
Shigella flexneri = assay: β-galactosidase detection on semi-solid medium, clinical and environmental strains (Example 2); assay type: cell-based; conditions: 50 mg/l + iron citrate 500 mg/l; 18 hours; 2 strains tested
Shigella sonnei = assay: as above; assay type: cell-based; conditions: 50 mg/l + iron citrate 500 mg/l; 18 hours; 10 strains tested
Serratia odorifera = assay: as above; assay type: cell-based; conditions: 50 mg/l + iron citrate 500 mg/l; 18 hours; 1 strain tested
Klebsiella ozaenae = assay: as above; assay type: cell-based; conditions: 50 mg/l + iron citrate 500 mg/l; 18 hours; 3 strains tested
Yersinia enterocolitica = assay: as above; assay type: cell-based; conditions: 50 mg/l + iron citrate 500 mg/l; 18 hours; 14 strains tested
Shigella dysenteriae = assay type: cell-based; conditions: 50 mg/l + iron citrate 500 mg/l; 18 hours; 2 strains tested
Enterobacter agglomerans = assay: β-galactosidase detection on semi-solid medium, clinical and environmental strains (Example 2); assay type: cell-based; conditions: 50 mg/l + iron citrate 500 mg/l; 18 hours; 1 strain tested
[3] = tested on: Enterococcus faecalis 117; assay: β-galactosidase detection in semi-solid Columbia medium (Example 1); assay type: cell-based
Providencia stuartii = assay: β-galactosidase detection on semi-solid medium, clinical and environmental strains (Example 2); assay type: cell-based; conditions: 50 mg/l + iron citrate 500 mg/l; 18 hours; 10 strains tested
Salmonella spp. = assay: as above; assay type: cell-based; conditions: 50 mg/l + iron citrate 500 mg/l; 18 hours; 64 strains tested
Escherichia coli = assay: as above; assay type: cell-based; conditions: 50 mg/l + iron citrate 500 mg/l; 18 hours; 41 strains tested
[4] = tested on: Klebsiella pneumoniae 023; assay: Comparison of glucoside substrates in semi-solid Columbia medium (Example 7); assay type: cell-based; conditions: 0.05 g/l + iron citrate 0.05 g/l
Listeria seeligeri 080 = assay: β-glucosidase detection in API strip wells (Example 6); conditions: 0.12 g/l + iron citrate 0.05 g/l
eight (8) species tested = assay: β-glucosidase detection in API strip wells, all species together (Example 6); assay type: cell-based; conditions: of the eight (8) species tested; 0.12 g/l + iron citrate 0.05 g/l
[5] = tested on: Klebsiella pneumoniae 023; assay: β-glucosidase detection in API strip wells (Example 6); conditions: 0.12 g/l + iron citrate 0.05 g/l

O=C1c2ccccc2C(=O)c2c1ccc(O[C@@H]1O[C@H](CO)[C@H](O)[C@H](O)[C@H]1O)c2O [Alizarin-2-β-D-galactoside]
64%: percentage of positive strains (Yersinia enterocolitica)
1.5: Intensity ([2]; 0.08 g/l + iron citrate, 18 H) | Intensity ([2]; 0.08 g/l + iron citrate, 24 H)
0.8: Intensity ([2]; 0.05 g/l + iron citrate, 18 H)
0%: percentage of positive strains (Proteus vulgaris) | percentage of positive strains (Shigella boydii) | percentage of positive strains (Shigella flexneri) | percentage of positive strains (Shigella dysenteriae) | percentage of positive strains (Providencia stuartii) | percentage of positive strains (Salmonella spp.)
3: Intensity (Escherichia coli 115; 0.03 g/l + iron citrate, 48 H) | Intensity ([3]; 0.03 g/l + iron citrate, 24 H)
3.5: Intensity (Escherichia coli 115; 0.05 g/l + iron citrate, 18 H) | Intensity (Escherichia coli 115; 0.05 g/l + iron citrate, 24 H) | Intensity (Escherichia coli 115; 0.05 g/l + iron citrate, 48 H) | Intensity ([3]; 0.03 g/l + iron citrate, 48 H)
0.3: Intensity (Escherichia coli 115; 0.01 g/l + iron citrate, 18 H) | Intensity (Escherichia coli 115; 0.01 g/l + iron citrate, 24 H) | Intensity ([2]; 0.03 g/l + iron citrate, 18 H) | Intensity ([2]; 0.03 g/l + iron citrate, 24 H) | Intensity ([3]; 0.01 g/l + iron citrate, 18 H)
86%: percentage of positive strains (Aeromonas caviae)
1.7: Intensity ([2]; 0.08 g/l + iron citrate, 48 H)
2.7: Intensity (Escherichia coli 115; 0.03 g/l + iron citrate, 18 H) | Intensity (Escherichia coli 115; 0.03 g/l + iron citrate, 24 H) | Intensity ([3]; 0.03 g/l + iron citrate, 18 H)
4: Intensity (Escherichia coli 115; 0.08 g/l + iron citrate, 18 H) | Intensity (Escherichia coli 115; 0.08 g/l + iron citrate, 24 H) | Intensity (Escherichia coli 115; 0.08 g/l + iron citrate, 48 H) | Intensity ([3]; 0.05 g/l + iron citrate, 18 H) | Intensity ([3]; 0.05 g/l + iron citrate, 24 H) | Intensity ([3]; 0.05 g/l + iron citrate, 48 H) | Intensity ([3]; 0.08 g/l + iron citrate, 18 H) | Intensity ([3]; 0.08 g/l + iron citrate, 24 H) | Intensity ([3]; 0.08 g/l + iron citrate, 48 H)
95%: percentage of positive strains (Escherichia coli)
0.5: Intensity (Escherichia coli 115; 0.01 g/l + iron citrate, 48 H) | Intensity ([2]; 0.03 g/l + iron citrate, 48 H)
0.6: Intensity ([3]; 0.01 g/l + iron citrate, 24 H) | Intensity ([3]; 0.01 g/l + iron citrate, 48 H)
80%: percentage of positive strains (Hafnia alvei)
100%: percentage of positive strains (Enterobacter aerogenes) | percentage of positive strains (Shigella sonnei) | percentage of positive strains (Serratia odorifera) | percentage of positive strains (Klebsiella ozaenae) | percentage of positive strains (Enterobacter agglomerans)
67%: percentage of positive strains [1]
purple: Color (Escherichia coli 115; 0.01 g/l + iron citrate, 18 H) | Color (Escherichia coli 115; 0.01 g/l + iron citrate, 24 H) | Color (Escherichia coli 115; 0.01 g/l + iron citrate, 48 H) | Color (Escherichia coli 115; 0.03 g/l + iron citrate, 18 H) | Color (Escherichia coli 115; 0.03 g/l + iron citrate, 24 H) | Color (Escherichia coli 115; 0.03 g/l + iron citrate, 48 H) | Color (Escherichia coli 115; 0.05 g/l + iron citrate, 18 H) | Color (Escherichia coli 115; 0.05 g/l + iron citrate, 24 H) | Color (Escherichia coli 115; 0.05 g/l + iron citrate, 48 H) | Color (Escherichia coli 115; 0.08 g/l + iron citrate, 18 H) | Color (Escherichia coli 115; 0.08 g/l + iron citrate, 24 H) | Color (Escherichia coli 115; 0.08 g/l + iron citrate, 48 H) | Color ([2]; 0.03 g/l + iron citrate, 18 H) | Color ([2]; 0.03 g/l + iron citrate, 24 H) | Color ([2]; 0.03 g/l + iron citrate, 48 H) | Color ([2]; 0.05 g/l + iron citrate, 18 H) | Color ([2]; 0.05 g/l + iron citrate, 24 H) | Color ([2]; 0.05 g/l + iron citrate, 48 H) | Color ([2]; 0.08 g/l + iron citrate, 18 H) | Color ([2]; 0.08 g/l + iron citrate, 24 H) | Color ([2]; 0.08 g/l + iron citrate, 48 H) | Color ([3]; 0.01 g/l + iron citrate, 18 H) | Color ([3]; 0.01 g/l + iron citrate, 24 H) | Color ([3]; 0.01 g/l + iron citrate, 48 H) | Color ([3]; 0.03 g/l + iron citrate, 18 H) | Color ([3]; 0.03 g/l + iron citrate, 24 H) | Color ([3]; 0.03 g/l + iron citrate, 48 H) | Color ([3]; 0.05 g/l + iron citrate, 18 H) | Color ([3]; 0.05 g/l + iron citrate, 24 H) | Color ([3]; 0.05 g/l + iron citrate, 48 H) | Color ([3]; 0.08 g/l + iron citrate, 18 H) | Color ([3]; 0.08 g/l + iron citrate, 24 H) | Color ([3]; 0.08 g/l + iron citrate, 48 H)
1: Intensity ([2]; 0.05 g/l + iron citrate, 24 H) | Intensity ([2]; 0.05 g/l + iron citrate, 48 H)

O=C1c2ccccc2C(=O)c2c1ccc(O[C@@H]1O[C@H](CO)[C@@H](O)[C@H](O)[C@H]1O)c2O [Alizarin-2-β-D-glucoside]
3.5 arbitrary units: Intensity ([4]; 18 H)
Purple: Color ([4]; 18 H) | Color ([4]; 24 H) | Color ([4]; 48 H) | Color observed (Listeria seeligeri 080; 4 H) | Color observed (Listeria seeligeri 080; 24 H) | Color observed ([5]; 4 H) | Color observed ([5]; 24 H)
7 species: species in which activity was detected (eight (8) species tested)
4 arbitrary units: Intensity ([4]; 24 H) | Intensity ([4]; 48 H)
